Patent US9296745B2, “Diacylglycerol acyltransferase 2 inhibitors” (Pfizer Inc., priority 2012, dated 2016)
Where two headings read alike, the source gives them in different places.

Target: Human DGAT2 (hDGAT2) (Homo sapiens (Human), UniProt Q96PD7)
Assay: In vitro DGAT2 assay, IC50 determination with hDGAT2 membrane fraction
Format: biochemical
Conditions: geometric mean
Procedure: Recombinant baculovirus for the FLAG-tagged hDGAT2 was generated in SF9 insect cells using Bac-to-Bac baculovirus expression system (Invitrogen) according to the manufacturer's protocol. For the expression of hDGAT2, SF9 cells (20 L) grown in Sf900II media were infected with hDGAT2 baculovirus at a multiplicity of infection of 1 in a Wave Bioreactor System 20/50P wave bag (GE Healthcare). After 40 hours of infection, the cells were then harvested by centrifugation at 5,000×g. The cell pellets were washed by resuspending in phosphate buffered saline (PBS) and collected by centrifugation at 5,000×g. The cell paste was flash frozen in liquid N2 and stored at −80° C. until needed. All operations below were at 4° C. unless otherwise noted. The cells were resuspended in lysis buffer (50 mM Tris-HCl, pH 8.0, 250 mM sucrose) including 1 mM ethylenediaminetetraacetic acid (EDTA) and the complete protease inhibitor cocktail (Roche Diagnostics) at a ratio of 3 ml buffer per 1 g cell paste. The cells were lysed by dounce homogenizer. The cell debris was removed by centrifugation at 1,000×g for 20 min, and the supernatant was centrifuged at 100,000×g for 1 hour. The resulting pellet was rinsed three times by filling ultracentrifuge tubes to the top with ice cold PBS before decanting. The washed pellet was resuspended with gentle stirring for 1 hour in lysis buffer containing 8 mM 3-[(3-cholamidopropyl)dimethylammonio]-1-propanesulfonate (CHAPS) at a ratio of 1 mL buffer per 1 g of original cell paste and centrifuged again at 100,000×g for 1 hour. The resulting supernatant (hDGAT2 membrane fraction) was aliquotted, flash frozen in liquid N2, and stored at −80° C. until use.
To 1 μL of compounds dissolved in 100% DMSO and spotted at the bottom of each well, 5 μL of 0.04% bovine serum albumin (BSA) (fatty acid free, Sigma Aldrich) was added and the mixture was incubated at room temperature for 20 minutes. To this mixture, 10 μL of hDGAT2 membrane fraction (0.01 mg/mL) diluted in 100 mM Hepes-NaOH, pH 7.4, 20 mM MgCl2 containing 200 nM methyl arachidonyl fluorophosphonate (Cayman Chemical; dried from ethyl acetate stock solution under argon gas and dissolved in DMSO as 5 mM stock) was added. […] The reaction mixtures were incubated at room temperature for 40 min and the reactions were stopped by addition of 5 μL of 1% H3PO4. After the addition of 45 μL MicroScint-E (Perkin-Elmer), plates were sealed with Top Seal-A covers (Perkin-Elmer) and phase partitioning of substrates and products was achieved using a HT-91100 microplate orbital shaker (Big Bear Automation, Santa Clara, Calif.). Plates were centrifuged at 2,000×g for 1 min in an Allegra 6R Centrifuge (Beckman Coulter) and then were sealed again with fresh covers before reading in a 1450 Microbeta Wallac Trilux Scintillation Counter (Perkin Elmer). DGAT2 activity was measured by quantifying the generated product [^14C]tridecanoylglycerol in the upper organic phase.
Inhibitors were tested at eleven different concentrations to generate IC50 values for each compound. […] Results are reported as geometric mean IC50 values.

[1] = background for complete inhibition of DGAT2 obtained with 50 μM (1R,2R)-2-({3′-Fluoro-4′-[(6-fluoro-1,3-benzothiazol-2-yl)amino]-1,1′-biphenyl-4-yl}carbonyl)cyclopentanecarboxylic acid, read-out: DGAT2 IC50

Sequence of Human DGAT2 (hDGAT2) (Q96PD7 whole entry): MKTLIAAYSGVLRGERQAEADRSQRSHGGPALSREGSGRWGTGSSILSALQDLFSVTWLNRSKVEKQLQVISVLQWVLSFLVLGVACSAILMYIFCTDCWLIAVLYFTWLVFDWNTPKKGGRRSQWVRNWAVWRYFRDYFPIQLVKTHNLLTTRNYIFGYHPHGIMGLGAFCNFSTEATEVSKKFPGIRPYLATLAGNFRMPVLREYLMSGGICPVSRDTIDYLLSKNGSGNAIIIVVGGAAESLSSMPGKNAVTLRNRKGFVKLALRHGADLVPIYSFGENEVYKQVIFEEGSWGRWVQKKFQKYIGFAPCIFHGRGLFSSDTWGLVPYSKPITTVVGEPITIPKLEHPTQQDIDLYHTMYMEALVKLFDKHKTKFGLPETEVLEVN

Compound | IC50 [1] [nM] | IC50 (background for complete inhibition of DGAT2 obtained with Example 196-A instead of the cyclopentanecarboxylic acid reference, read-out: DGAT2 IC50 (nM), values in the parentheses) [nM]
CC(C)(C)c1csc(-c2nc3ccc(N4CCC[C@@H](C(=O)N5CCCC5)C4)nc3[nH]2)n1 [Example 42, (R)-(1-(2-(4-tert-Butylthiazol-2-yl)-3H-imidazo[4,5-b]pyridin-5-yl)piperidin-3-yl)(pyrrolidin-1-yl)methanone] | 3.18 | 
O=C([C@@H]1CCCN(c2ccc3nc(-c4cccc(OC(F)F)c4)[nH]c3n2)C1)N1CCCC1 [Example 43, (R)-(1-(2-(3-(Difluoromethoxy)phenyl)-3H-imidazo[4,5-b]pyridin-5-yl)piperidin-3-yl)(pyrrolidin-1-yl)methanone] | 7.41 | 
Cc1cccc(-c2nc3ccc(N4CCC[C@@H](C(=O)N5CCCC5)C4)nc3[nH]2)n1 [Example 44, (R)-(1-(2-(6-Methylpyridin-2-yl)-3H-imidazo[4,5-b]pyridin-5-yl)piperidin-3-yl)(pyrrolidin-1-yl)methanone] | 36.5 | 
N#Cc1cccc(-c2nc3ccc(N4CCC[C@@H](C(=O)N5CCCC5)C4)nc3[nH]2)c1 [Example 47, (R)-3-(5-(3-(Pyrrolidine-1-carbonyl)piperidin-1-yl)-3H-imidazo[4,5-b]pyridin-2-yl)benzonitrile] | 34.5 | 
O=C([C@@H]1CCCN(c2ccc3nc(COc4ccc(Cl)cc4)[nH]c3n2)C1)N1CCCC1 [Example 48] | 10.7 | 
O=C([C@@H]1CCCN(c2ccc3nc(C4(c5ccccc5)CC4)[nH]c3n2)C1)N1CCCC1 [Example 51, (R)-(1-(2-(1-Phenylcyclopropyl)-3H-imidazo[4,5-b]pyridin-5-yl)piperidin-3-yl)(pyrrolidin-1-yl)methanone] | 69.7 | 
O=C([C@@H]1CCCN(c2ccc3nc(C4CCC4)[nH]c3n2)C1)N1CCCC1 [Example 53, (R)-(1-(2-Cyclobutyl-3H-imidazo[4,5-b]pyridin-5-yl)piperidin-3-yl)(pyrrolidin-1-yl)methanone] | 2530 | 
Cc1cccc(=O)n1Cc1nc2ccc(N3CCC[C@@H](C(=O)N4CCCC4)C3)nc2[nH]1 [Example 57, (R)-6-Methyl-1-((5-(3-(pyrrolidine-1-carbonyl)piperidin-1-yl)-3H-imidazo[4,5-b]pyridin-2-yl)methyl)pyridin-2(1H)-one] | 702 | 
c1ccc(C2CCCN(c3ccc4nc(-c5ccnc(C6CC6)n5)[nH]c4n3)C2)nc1 (stereo not shown) [Example 59, 2-(2-Cyclopropylpyrimidin-4-yl)-5-(3-(pyridin-2-yl)piperidin-1-yl)-3H-imidazo[4,5-b]pyridine] | 858 | 
CN(C)C(=O)[C@@H]1CCCN(c2ccc3nc(-c4cccc(OC(F)F)c4)[nH]c3n2)C1 [Example 60, (R)-1-(2-(3-(Difluoromethoxy)phenyl)-3H-imidazo[4,5-b]pyridin-5-yl)-N,N-dimethylpiperidine-3-carboxamide] | 892 | 
O=C(C1CCCC1)N1CCCC(c2nc3ccc(N4CCC[C@@H](C(=O)N5CCCC5)C4)nc3[nH]2)C1 (stereo partly shown) [Example 62] | 241 | 
O=C([C@@H]1CCCN(c2ccc3nc(-c4ccnc(C5CC5)n4)[nH]c3n2)C1)N1CC[C@H](F)C1 [Example 65, ((R)-1-(2-(2-Cyclopropylpyrimidin-4-yl)-3H-imidazo[4,5-b]pyridin-5-yl)piperidin-3-yl)((S)-3-fluoropyrrolidin-1-yl)methanone] | 59.3 | 
O=C([C@@H]1CCCN(c2ccc3nc(-c4ccnc(C5CC5)n4)[nH]c3n2)C1)N1CCC[C@@H]1CO [Example 66, ((R)-1-(2-(2-Cyclopropylpyrimidin-4-yl)-3H-imidazo[4,5-b]pyridin-5-yl)piperidin-3-yl)((R)-2-(hydroxymethyl)pyrrolidin-1-yl)methanone] | 1050 | 
C[C@@H]1CCCN1C(=O)[C@@H]1CCCN(c2ccc3nc(-c4ccnc(C5CC5)n4)[nH]c3n2)C1 [Example 67, ((R)-1-(2-(2-Cyclopropylpyrimidin-4-yl)-3H-imidazo[4,5-b]pyridin-5-yl)piperidin-3-yl)((R)-2-methylpyrrolidin-1-yl)methanone] | 58.2 | 
O=C([C@@H]1CCCN(c2ccc3nc(-c4ccnc(C5CC5)n4)[nH]c3n2)C1)N1C[C@@H](F)[C@H](F)C1 [Example 68, ((R)-1-(2-(2-Cyclopropylpyrimidin-4-yl)-3H-imidazo[4,5-b]pyridin-5-yl)piperidin-3-yl)((3R,4R)-3,4-difluoropyrrolidin-1-yl)methanone] | 54.7 | 
O=C([C@@H]1CCCN(c2ccc3nc(-c4ccnc(C5CC5)n4)[nH]c3n2)C1)N1CC[C@@H](F)C1 [Example 69, ((R)-1-(2-(2-Cyclopropylpyrimidin-4-yl)-3H-imidazo[4,5-b]pyridin-5-yl)piperidin-3-yl)((R)-3-fluoropyrrolidin-1-yl)methanone] | 35.4 | 
O=C([C@@H]1CCCN(c2ccc3nc(-c4ccnc(C5CC5)n4)[nH]c3n2)C1)N1CCOCC1 [Example 70, (R)-(1-(2-(2-Cyclopropylpyrimidin-4-yl)-3H-imidazo[4,5-b]pyridin-5-yl)piperidin-3-yl)(morpholino)methanone] | 162 | 
CN(C)C(=O)[C@@H]1CCCN(c2ccc3nc(-c4ccnc(C5CC5)n4)[nH]c3n2)C1 [Example 71, (R)-1-(2-(2-Cyclopropylpyrimidin-4-yl)-3H-imidazo[4,5-b]pyridin-5-yl)-N,N-dimethylpiperidine-3-carboxamide] | 1470 | 
Cc1cnn(C2(c3nc4ccc(N5CCC[C@@H](C(=O)N6CCCC6)C5)nc4[nH]3)CC2)c1 [Example 72] | 104 | 
O=C([C@@H]1CCCN(c2ccc3nc(C4(n5cc(C6CC6)cn5)CC4)[nH]c3n2)C1)N1CCCC1 [Example 77, (R)-(1-(2-(1-(4-Cyclopropyl-1H-pyrazol-1-yl)cyclopropyl)-3H-imidazo[4,5-b]pyridin-5-yl)piperidin-3-yl)(pyrrolidin-1-yl)methanone] | 107 | 
O=C([C@@H]1CCCN(c2ccc3nc(C4(n5cccn5)CC4)[nH]c3n2)C1)N1CCCC1 [Example 79, (R)-(1-(2-(1-(1H-Pyrazol-1-yl)cyclopropyl)-3H-imidazo[4,5-b]pyridin-5-yl)piperidin-3-yl)(pyrrolidin-1-yl)methanone] | 230 | 238
O=C([C@@H]1CCCN(c2ccc3nc(C4(n5cccn5)CCC4)[nH]c3n2)C1)N1CCCC1 [Example 80, (R)-(1-(2-(1-(1H-Pyrazol-1-yl)cyclobutyl)-3H-imidazo[4,5-b]pyridin-5-yl)piperidin-3-yl)(pyrrolidin-1-yl)methanone] | 1400 | 
O=C([C@@H]1CCCN(c2ccc3nc(-c4nc(C5CC5)cs4)[nH]c3n2)C1)N1CCCC1 [Example 84, (R)-(1-(2-(4-Cyclopropylthiazol-2-yl)-3H-imidazo[4,5-b]pyridin-5-yl)piperidin-3-yl)(pyrrolidin-1-yl)methanone] | 9.55 | 
O=C([C@@H]1CCCN(c2ccc3nc(C4(Cc5ccccc5)COC4)[nH]c3n2)C1)N1CCCC1 [Example 85, (R)-(1-(2-(3-Benzyloxetan-3-yl)-3H-imidazo[4,5-b]pyridin-5-yl)piperidin-3-yl)(pyrrolidin-1-yl)methanone] | 1160 | 
Cc1cc(C2(c3nc4ccc(N5CCC[C@@H](C(=O)N6CCCC6)C5)nc4[nH]3)CC2)on1 [Example 86, (R)-(1-(2-(1-(3-Methylisoxazol-5-yl)cyclopropyl)-3H-imidazo[4,5-b]pyridin-5-yl)piperidin-3-yl)(pyrrolidin-1-yl)methanone] | 288 | 
Cc1cc(C2(c3nc4ccc(N5CCC[C@@H](C(=O)N6CCCC6)C5)nc4[nH]3)CC2)no1 [Example 87, (R)-(1-(2-(1-(5-Methylisoxazol-3-yl)cyclopropyl)-3H-imidazo[4,5-b]pyridin-5-yl)piperidin-3-yl)(pyrrolidin-1-yl)methanone] | 102 | 
O=C([C@@H]1CCCN(c2ccc3nc(C4(c5cccnc5)CCC4)[nH]c3n2)C1)N1CCCC1 [Example 88, (R)-(1-(2-(1-(Pyridin-3-yl)cyclobutyl)-3H-imidazo[4,5-b]pyridin-5-yl)piperidin-3-yl)(pyrrolidin-1-yl)methanone] | 190 | 
